Data taken from patent US8338455B2, “Compounds and methods of use” (Amgen Inc., priority 2006, dated 2012).

Molecular target: KDR (Homo sapiens, UniProt P35968)
Experiment: KDR kinase inhibition (Ki)
Format: biochemical

KDR, sequence (P35968 20-1356, species assumed): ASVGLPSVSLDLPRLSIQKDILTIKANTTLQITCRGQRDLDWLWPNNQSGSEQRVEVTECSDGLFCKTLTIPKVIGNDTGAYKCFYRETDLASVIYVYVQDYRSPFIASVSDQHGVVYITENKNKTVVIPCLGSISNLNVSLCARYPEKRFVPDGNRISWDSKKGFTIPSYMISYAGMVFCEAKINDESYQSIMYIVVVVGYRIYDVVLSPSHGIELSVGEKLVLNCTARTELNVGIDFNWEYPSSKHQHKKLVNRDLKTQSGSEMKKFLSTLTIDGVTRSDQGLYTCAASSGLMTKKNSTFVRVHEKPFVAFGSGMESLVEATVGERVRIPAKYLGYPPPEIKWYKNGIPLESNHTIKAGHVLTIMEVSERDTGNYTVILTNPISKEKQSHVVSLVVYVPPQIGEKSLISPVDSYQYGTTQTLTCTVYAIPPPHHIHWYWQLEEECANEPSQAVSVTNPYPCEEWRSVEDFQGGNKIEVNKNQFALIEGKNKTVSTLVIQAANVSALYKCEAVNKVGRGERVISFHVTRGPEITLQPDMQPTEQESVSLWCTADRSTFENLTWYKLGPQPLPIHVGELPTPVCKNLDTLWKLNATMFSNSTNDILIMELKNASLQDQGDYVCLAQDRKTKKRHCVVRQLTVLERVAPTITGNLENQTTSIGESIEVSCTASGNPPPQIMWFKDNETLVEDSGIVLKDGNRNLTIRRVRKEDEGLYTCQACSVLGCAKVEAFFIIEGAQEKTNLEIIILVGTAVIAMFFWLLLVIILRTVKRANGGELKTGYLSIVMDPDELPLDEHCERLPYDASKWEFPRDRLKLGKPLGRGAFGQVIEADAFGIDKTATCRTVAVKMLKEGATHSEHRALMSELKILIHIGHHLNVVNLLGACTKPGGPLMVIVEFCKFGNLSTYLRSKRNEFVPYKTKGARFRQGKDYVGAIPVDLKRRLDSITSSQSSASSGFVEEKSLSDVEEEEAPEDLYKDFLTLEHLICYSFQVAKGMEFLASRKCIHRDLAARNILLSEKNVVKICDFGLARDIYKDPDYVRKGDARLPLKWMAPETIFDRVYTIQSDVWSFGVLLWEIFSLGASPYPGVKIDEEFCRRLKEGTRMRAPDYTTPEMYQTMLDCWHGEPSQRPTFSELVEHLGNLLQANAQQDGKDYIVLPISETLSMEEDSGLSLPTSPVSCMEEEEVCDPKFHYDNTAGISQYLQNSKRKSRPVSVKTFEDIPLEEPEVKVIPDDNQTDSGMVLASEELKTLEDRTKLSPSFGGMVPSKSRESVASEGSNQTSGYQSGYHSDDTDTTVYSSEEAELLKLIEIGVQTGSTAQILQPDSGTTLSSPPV

Structure (SMILES)	Ki
O=C(Nc1ccc(Cl)cc1)c1cccc2c1CCN(Cc1ccncc1)C2 [Example 1, N-(4-chlorophenyl)-2-(pyridin-4-ylmethyl)-1,2,3,4-tetrahydroisoquinoline-5-carboxamide]	3000 nM
COc1cc(NC(=O)c2cccc3c2CCN(Cc2ccnc4ccccc24)C3)cc(OC)c1 [Example 3C]	42.8 nM
CC(=O)N1CC(C)(C)c2ccc(NC(=O)c3cccc4c3CCN(Cc3ccnc5ccccc35)C4)cc21 [Example 3H]	5.4 nM
CC(C)c1ccc(NC(=O)Nc2cccc3c2CCN(Cc2ccnc4ccccc24)C3)cc1 [Example 5A]	72.3 nM
CC(C)(C)c1ccc(NC(=O)c2cccc3c2CCN(Cc2ccnc4ccccc24)C3=O)cc1 [Example 7A]	11.1 nM

More lines, in order of falling Ki, values ahead:

Ki	Structure (SMILES)
529 nM	COc1cc2nccc(Cn3ccc4cc(Cl)ccc4c3=O)c2cc1OC [Example 11, 6-chloro-2-((6,7-dimethoxyquinolin-4-yl)methyl)isoquinolin-1(2H)-one]
333 nM	CC(C)(C)c1ccc(NC(=O)c2cccc3c2CCN(Cc2ccncc2)C3)cc1 [Example 1A]
105 nM	Cc1cccc(NC(=O)c2cccc3c2CCN(Cc2ccnc4ccccc24)C3)c1 [Example 3A]
70.1 nM	O=C(Nc1ccc(Cl)cc1)Nc1cccc2c1CCN(Cc1ccnc3ccccc13)C2 [Example 5C]
1.6 nM	COc1cc2nccc(CN3CCc4c(C(=O)Nc5ccc(Cl)c(C(F)(F)F)c5)cccc4C3=O)c2cc1OC [Example 10A]
